The values that follow come from patent US20200128823A1, “ALGICIDAL, ALGISTATIC, HERBICIDAL AND HERBISTATIC TREATMENT OF WATER” (priority 2017, published 2020).

≈ marks a conversion by molar mass, not a printed value. Where two headings read alike, the source gives them in different places.

For series [1] the following is noted: cited from earlier work.
A short description of series [2]: Previous experiments: dissolution in water of a composition of gallic acid alone. It counts as physicochemical. As to conditions: composition composed only of gallic acid, no excipient. An excerpt:
In order to avoid this problem, excipients of different nature but without algicidal, algistatic, herbicidal or herbistatic effect are preferably added. The excipients are desirable to allow a rapid descent on the bottom of the various conditioning, the dissolution of the active substance or optionally of the active substances and secondly to create a stratum of a density greater than that of the water by a thickening action.

For orientation: Solubility means the concentration that dissolves in the medium under given conditions.

For the compound `Oc1ccc(/C=C/c2cc(O)cc(O)c2)cc1` [Resveratrol, 5-[(E)-2-(4-hydroxyphenyl)-ethenyl] benzene-1,3-diol], the Solubility was approximately 16 mg/mL (≈ 70.1 mM) in series [1] (DMSO), 50 mg/mL (≈ 219 mM) in series [1] (ethanol) and approximately 0.03 mg/mL (≈ 0.131 mM) in series [1] (water). Take `O=c1oc2c(O)c(O)cc3c(=O)oc4c(O)c(O)cc1c4c23` [Ellagic Acid, 2,3,7,8-Tetrahydroxy(1)benzopyrano (5,4,3-cde)-(1)benzopyran-5,10-dione]: the Solubility in series [1] (at 21° C.) is less than 1 mg/mL. Take `O=c1c(O)c(-c2ccc(O)c(O)c2)oc2cc(O)cc(O)c12` [Quercetin, 2-(3,4-dihydroxyphenyl)-3,5,7-trihydroxy-4H-chromen-4-one]: the Solubility in series [1] (water) is 0.06 mg/mL (≈ 0.199 mM).

Consider `O=C(O)c1cc(O)c(O)c(O)c1` [Non-Hydrated Gallic Acid, 3,4,5-trihydroxybenzoic acid], for which the Dissolution in water result in series [2] is on record as “does not dissolve or is very difficult to dissolve in water”. Turning to `O=C(O)/C=C/c1ccc(O)c(O)c1` [Caffeic Acid, (E) 3-(3,4-dihydroxyphenyl)prop-2-enoic acid], the “Solubility in water (in words)” value in series [1] (water) is given as “poorly soluble in water”. Regarding `Oc1cccc(O)c1O` [Pyrogallic Acid, pyrogallol], in series [1] (at 20° C.), the Solubility in water was 588.00 mg/mL (≈ 4660 mM). Consider `O.O=C(O)c1cc(O)c(O)c(O)c1` [Gallic Acid Monohydrate], for which the Solubility in series [1] (water at 20° C.) was 15 mg/mL.
